For one assay, the system named is conscious rats. Nature of the assay: Cystometry in conscious rats. The conditions noted are these: administered orally. Type of assay: in vivo, rat. Here is the method: Male Sprague-Dawley rats [Crl: CD® (SD) IGS BR] of 300-400 g b.w. supplied by Charles River Italia were used. The animals were housed with free access to food and water and maintained on a forced 12-hour-light/12-hour-dark cycle at 22-24° C. of temperature, except during the experiment. To quantify urodynamic parameters in conscious rats, cystometrographic studies were performed according to the procedure previously reported (Guarneri et al., Pharmacol. Res. 24: 175, 1991).
Briefly, the rats were anaesthetised by intraperitoneal administration of 3 ml/kg of Equithensin solution (pentobarbital 30 mg/kg and chloral hydrate 125 mg/kg) and placed in a supine position. […]
On the day of the experiment, the rats were placed in modified Bollman cages, i.e., restraining cages that were large enough to permit the rats to adopt a normal crouched posture, but narrow enough to prevent turning around. […] The intraluminal-pressure signal during infusion of saline into the bladder (cystometrogram) was continuously recorded on a polygraph (Rectigraph-8K San-ei with BM614/2 amplifier from Biomedica Mangoni) or stored on PC by data acquisition system (PowerLab, Chart 4 software, AD Instruments). From the cystometrogram, bladder volume capacity (BVC) was evaluated. […] Basal BVC value was evaluated as the mean of the values observed in the cystometrograms recorded in an initial period of 30-60 minutes. […]

A further assay has as its target T1, mGlu5 receptor (Rattus norvegicus, UniProt P31424).
T1 construct: from tissue; host or cells: forebrain (cortex, striatum and hippocampus) membranes of male Sprague Dawley rats
Nature of the assay: Radioligand binding assay at metabotropic glutamate receptor 5 in rat brain ([3H]MPEP). The conditions noted are these: rat forebrain membranes, 4 nM [3H]MPEP; Ki from IC50 by Cheng & Prusoff; read-out: affinity (Ki) for mGlu5 receptor. The procedure: Radioligand Binding Assay at metabotropic glutamate receptor 5 in rat brain.
a) Membrane preparation: male Sprague Dawley rats (200-300 g, Charles River, Italy) were killed by cervical dislocation and the forebrain (cortex, striatum and hippocampus) was homogenized (2×20 sec) in 50 vols of cold 50 mM Tris buffer pH 7.4, using a Politron homogenizer (Kinematica). Homogenates were centrifuged at 48000×g for 15 min, resuspended in 50 vols of the same buffer, incubated at 37° C. for 15 min and centrifuged and resuspended two more times. The final pellets were frozen and stored at −80° C. until use.
b) Binding assay: pellets from rat forebrain were resuspended in 100 vols of 20 mM HEPES, 2 mM MgCl2, 2 mM CaCl2, pH 7.4. The membranes were incubated in a final volume of 1 ml for 60 min at 25° C. with 4 nM [^3H]MPEP in the absence or presence of competing drugs. Non-specific binding was determined in the presence of 10 μM MPEP (Spooren W. et al. Trends Pharmacol Sci. 22, 331-337, 2001). The incubation was stopped by the addition of cold Tris buffer pH 7.4 and rapid filtration through 0.5% polyethyleneimine pretreated Filtermat 1204-401 (Wallac) filters. The filters were then washed with cold buffer and the radioactivity retained on the filters was counted by liquid scintillation spectrometry. […]

The values that follow come from patent US20120028931A1, “HETEROCYCLIC M-GLU5 ANTAGONISTS” (RECORDATI IRELAND LIMITED, priority 2009, published 2012).

For orientation: Ki means the dissociation constant of the complex between target and ligand, obtained from inhibition or displacement.

T1 sequence (P31424 21-1203): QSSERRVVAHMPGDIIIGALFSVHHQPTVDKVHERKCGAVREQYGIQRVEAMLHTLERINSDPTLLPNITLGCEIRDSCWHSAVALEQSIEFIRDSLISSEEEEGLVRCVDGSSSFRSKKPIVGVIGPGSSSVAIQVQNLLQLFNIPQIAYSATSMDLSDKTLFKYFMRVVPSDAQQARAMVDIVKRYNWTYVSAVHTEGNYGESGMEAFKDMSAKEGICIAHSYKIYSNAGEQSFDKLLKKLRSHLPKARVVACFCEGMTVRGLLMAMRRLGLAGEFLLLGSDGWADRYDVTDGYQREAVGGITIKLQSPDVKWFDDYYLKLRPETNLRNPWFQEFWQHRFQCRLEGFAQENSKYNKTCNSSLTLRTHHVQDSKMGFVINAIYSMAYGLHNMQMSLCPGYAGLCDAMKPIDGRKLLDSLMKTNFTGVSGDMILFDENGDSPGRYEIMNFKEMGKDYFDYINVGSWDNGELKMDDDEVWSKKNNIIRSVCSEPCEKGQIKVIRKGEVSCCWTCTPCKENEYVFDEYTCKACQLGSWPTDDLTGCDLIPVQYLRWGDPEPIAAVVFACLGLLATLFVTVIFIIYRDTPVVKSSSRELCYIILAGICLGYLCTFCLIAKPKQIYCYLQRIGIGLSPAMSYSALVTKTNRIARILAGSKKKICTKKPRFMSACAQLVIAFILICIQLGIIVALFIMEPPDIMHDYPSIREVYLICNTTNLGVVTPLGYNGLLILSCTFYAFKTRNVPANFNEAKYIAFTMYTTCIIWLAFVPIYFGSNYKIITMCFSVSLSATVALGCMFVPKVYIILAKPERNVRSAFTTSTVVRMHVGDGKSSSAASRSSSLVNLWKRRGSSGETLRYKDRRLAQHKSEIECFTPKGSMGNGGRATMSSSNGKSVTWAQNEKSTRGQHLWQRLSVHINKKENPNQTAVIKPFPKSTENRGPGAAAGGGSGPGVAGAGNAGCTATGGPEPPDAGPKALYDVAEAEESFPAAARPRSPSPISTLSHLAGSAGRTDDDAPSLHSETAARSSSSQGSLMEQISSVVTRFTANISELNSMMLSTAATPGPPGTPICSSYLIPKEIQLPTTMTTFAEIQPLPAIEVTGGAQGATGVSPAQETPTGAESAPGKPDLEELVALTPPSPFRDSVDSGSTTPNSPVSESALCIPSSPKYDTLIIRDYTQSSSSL

As to `Cc1ccc([N+](=O)[O-])c(N2CCC(=Cc3noc(-c4cccs4)n3)CC2)n1` [Example 29, 1-(6-methyl-3-nitro-2-pyridyl)-4-{[5-(2-thienyl)-1,2,4-oxadiazol-3-yl]-methylene}-piperidine], in the assay with conscious rats, the “effect on bladder volume capacity (BVC)” value is “effective in increasing the bladder volume capacity”.

As for `Cc1ccc([N+](=O)[O-])c(N2CCC(=Cc3cc(-c4ccco4)n(C)n3)CC2)n1` [Example 1, 1-(6-methyl-3-nitro-2-pyridyl)-4-{[5-(2-furyl)-1-methyl-1H-pyrazol-3-yl]-methylene}-piperidine], the Ki at mGlu5 receptor was 0.37 nM.
